The values that follow are results of earlier work, collected in patent publication US12000829B2, “Selection of patients for combination therapy” (SYNDAX PHARMACEUTICALS, INC., priority 2018, dated 2024).

Data set [1] concerns syngeneic mouse tumor models of lung and renal cell carcinoma. The note with it: two syngeneic mouse tumor models; tumor growth and survival.
The subject of data set [2] is modestly immunogenic mouse tumors. Conditions: in combination with immune checkpoint blockade agents.
Data set [3] concerns MDSCs and CD14+HLA-DR^Hi monocytes. The note with it: ER+ breast cancer patients, combined with exemestane.
The test system of data set [4] is squamous or non-squamous NSCLC. The note with it: NSCLC and metastatic melanoma cohorts.
Data set [5] relates to human carcinoma cell lines.

Like-named read-outs stand apart in the source and are kept apart here.

As to `Nc1ccccc1NC(=O)c1ccc(CNC(=O)OCc2cccnc2)cc1` [Entinostat, N-(2-aminophenyl)-4-[N-(pyridine-3-yl)methoxycarbonylamino-methyl]-benzamide], in data set [1], the “antitumor effect of PD-1 inhibition” value is recorded as “enhanced the antitumor effect of PD-1 inhibition”. Moreover, the effect on tumors entry in data set [2] is listed as “can eradicate modestly immunogenic mouse tumors”. In addition, in data set [3], the “effect on CD14+HLA-DR^Hi monocytes in patients” value is “increased immunocompetent CD14+HLA-DR^Hi monocytes” and the “effect on MDSCs in patients” value is given as “reduction of immunosuppressive MDSCs”.

In the case of “MPDL3280A: human anti-PD-L1 mAb with engineered Fc domain minimizing ADCC”, the responses result in data set [4] is “durable responses”.

“Pembrolizumab: humanized monoclonal IgG4 anti-PD-1 antibody”: in the data set on melanoma (human, in vivo), the “additional patients with unconfirmed responses” value is 8 patients and the “biopsies of responding tumors” value is on record as “dense infiltration by CD8^+ T cells”. The “rate of severe toxicities” value in the data set on melanoma (less dose intense cohorts) was less than 10%.

Take “avelumab: fully human anti-PD-L1 IgG1 antibody”: the lysis result in data set [5] (NK cells as effectors) was “Lysis was increased”; in data set [5] (NK cells preactivated with IL-12), “increased lysis”; in data set [5] (NK-mediated ADCC vs whole PBMCs or dendritic cells isolated from PBMCs) it was “Little or no lysis”. In addition, the “human carcinoma cell lines in which ADCC was induced” value in data set [5] (PBMCs as effectors) is 8 out of 18. Also, the “cell lines with augmented lysis” value in data set [5] (tumor cell lines pretreated with IFN-γ) was 4 out of 10.
